Biological target: T1, Leukotriene B4 receptor 2 (Homo sapiens, UniProt Q9NPC1)
T1 sequence (Q9NPC1 whole entry): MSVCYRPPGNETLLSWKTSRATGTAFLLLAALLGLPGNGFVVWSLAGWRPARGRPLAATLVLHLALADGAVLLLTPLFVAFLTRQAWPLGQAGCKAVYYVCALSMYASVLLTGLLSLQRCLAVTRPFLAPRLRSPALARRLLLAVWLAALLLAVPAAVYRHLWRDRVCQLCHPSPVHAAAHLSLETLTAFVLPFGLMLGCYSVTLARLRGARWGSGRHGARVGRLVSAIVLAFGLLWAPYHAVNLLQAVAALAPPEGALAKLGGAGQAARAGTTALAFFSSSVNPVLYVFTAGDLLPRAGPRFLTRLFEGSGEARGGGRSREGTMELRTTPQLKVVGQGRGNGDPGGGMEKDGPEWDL

| Compound | Ki |
| --- | --- |
| O=C(Nc1ccc2c(=O)cc(-c3nnn[nH]3)oc2c1)c1ccc(OCCCCc2ccccc2)cc1 [CAS_103177-37-3] | 3620 nM |
| CCCCCC=CCC=CC=CC=CC(SCC(NC(=O)CCC(N)C(=O)O)C(=O)NCC(=O)O)C(O)CCCC(=O)O (stereo unspecified) [CAS_5283121] | 3.35 nM |
| CCCCC/C=C\C\C=C/C=C/C=C/[C@@H](SC[C@H](N)C(=O)O)[C@@H](O)CCCC(=O)O [(5S-(5R*,6S*(S*),7E,9E,11Z,14Z))-6-((2-Amino-2-carboxyethyl)thio)-5-hydroxy-7,9,11,14-eicosatetraenoic acid] | 693 nM |

The remaining lines, values ahead:

| Ki | Compound |
| --- | --- |
| 7400 nM | COc1cc(C(=O)NS(=O)(=O)c2ccccc2C)ccc1Cc1cn(C)c2ccc(NC(=O)OC3CCCC3)cc12 [cyclopentyl 3-(2-methoxy-4-((o-tolylsulfonyl)carbamoyl)benzyl)-1-methylindole-5-carbamate] |
| > 10000 nM | CC(C)(O)c1ccccc1CCC(S)c1cccc(C=Cc2ccc3ccc(Cl)cc3n2)c1 (stereo unspecified) [NSC_5311297] |
| 3.48 nM | CCCCC/C=C\C\C=C/C=C/C=C/[C@@H](SC[C@H](N)C(=O)NCC(=O)O)[C@@H](O)CCCC(=O)O [5S-hydroxy-6R-(S-cysteinylglycinyl)-7E,9E,11E,14Z-eicosatetraenoic acid] |

From BindingDB's records for doi:10.1074/jbc.M003490200 (University of Virginia, 2000)
